Data published in patent US12042511B1, “Inhalation delivery methods and compositions for vitamin B12” (priority 2017, dated 2024).

How the values were obtained:
[1] = B12 blood levels after inhalation of methylcobalamin solution (vaporizer/electronic cigarette); assay type: in vivo, human
Protocol: A new method for vitamin B12 supplementation involves determining that a person has a disorder causing the person to have a reduced ability to process one or more forms of B-vitamins and convert them into a usable form in the body and administering methylcobalamin to the person in aerosol form or in water vapor, for inhalation. In some embodiments, the person is determined to have a MTHFR gene mutation. In some embodiments, the methylcobalamin is administered as part of a mixture also comprising vegetable glycerin and water. In some embodiments, the determined disorder includes anemia, pernicious anemia, and/or advanced age. In some embodiments, administering methylcobalamin involves administering at least 500 mcg of methylcobalamin in one day or in one week. For example, 500 mcg of methylcobalamin may be administered in a single daily or weekly dose. Depending on the concentration of the methylcobalamin in the solution used to administer the methylcobalamin, 500 mcg of methylcobalamin may be administered in 0.01 mL or more of solution. The concentration of methylcobalamin in solution for a vaporizer/electronic cigarette application in some embodiments is 1,000 mcg/mL or higher, in preferred embodiments 2,000 mcg/mL or higher. […]

[2] = bioavailability/absorption of methylcobalamin in inhalable form compared with other forms of B12; assay type: in vivo, human; conditions: persons with a methylenetetrahydrofolate reductase (MTHFR) genetic mutation
Protocol: When a person is determined to have MTHFR or another condition that causes the person to have a reduced ability to process B-vitamin supplements and convert them into a usable form in the body, the person may be administered methylcobalamin by inhalation for proper B12 supplementation.

Structure (SMILES): C/C1=C2/[N-][C@H]([C@H](CC(N)=O)[C@@]2(C)CCC(=O)NC[C@@H](C)OP(=O)([O-])O[C@H]2[C@@H](O)[C@@H](n3cnc4cc(C)c(C)cc43)O[C@@H]2CO)[C@]2(C)N=C(/C(C)=C3N=C(/C=C4N=C1[C@@H](CCC(N)=O)C\4(C)C)[C@@H](CCC(N)=O)[C@]\3(C)CC(N)=O)[C@@H](CCC(N)=O)[C@]2(C)CC(N)=O.[CH3-].[Co+3] [methylcobalamin]
- levels of B12 in a user's blood ([1]; lower concentrations (below 1,000 mcg/mL) of methylcobalamin in solution): no effect on the user's blood levels of B12
- levels of B12 in a user's blood ([1]; methylcobalamin concentration in solution 1,000 mcg/mL or higher, vaporizer/electronic cigarette, immediately after treatment (within about 5 minutes) and persistently): substantially increasing levels of B12 in a user's blood
- absorption relative to other forms of B12 [2]: more easily absorbed than other forms of B12
